Data taken from article PMC4052318, “Cyclodepsipeptides and Other O-Containing Heterocyclic Metabolites from Beauveria felina EN-135, a Marine-Derived Entomopathogenic Fungus” (Marine Drugs, 2014).
Converted amounts (≈) assume the structure as drawn. Numbered stars: 1 amine (or outer) side, 2 acyl side, 3 side chain; on linkers, the order of the positions; unused ones are H or OH. Square brackets hold non-standard residues; d marks the D form. Peptide text beside a SMILES is read from it. X1 = O=C([C@@H](C[C@H](O)CCl)O[*:1])[*:2]; dLac(3-vinyl) = C=CC[C@@H](O)C(=O)O; NMeV = CN[C@H](C(=O)O)C(C)C; NMeA = CN[C@@H](C)C(=O)O; βAla = NCCC(=O)O

Assays:
[1] = test system: brine shrimp (Artemia salina); assay: Brine-shrimp lethality; type: in vivo; settings: for LD50, lethality against brine shrimp: colchicine as positive control; for lethal rate against brine shrimp: at a concentration of 100 μg/mL
Method: The brine-shrimp (Artemia salina) lethality of the isolated compounds was determined as previously described. Colchicine was used as a positive control.

P. aeruginosa = assay: Antimicrobial assay (disk diffusion and double dilution methods); type: cell-based; settings: Pseudomonas aeruginosa; chloramphenicol as positive control; read-out: MIC against P. aeruginosa
Description: The antibacterial activities against E. coli, S. aureus, P. aeruginosa, V. alginolyticus, V. anguillarum, and E. tarda along with the antifungal activities against P. piricola, A. brassicae, C. gloeosporioides, and C. fusarium were investigated using the disk diffusion and double dilution methods as previously described. Chloramphenicol and amphotericin B were used as positive controls for the antibacterial and antifungal bioassays, respectively.

CC[C@H](C)[C@@H]1CC(=O)NCC(=O)N[C@@H](C(C)C)C(=O)N[C@H](CC(C)C)C(=O)N[C@@H](C)C(=O)N[C@@H](C)C(=O)O1 [Compound 1, iso-isariin D] was tested, and the “LD50, lethality against brine shrimp” value [1] was 26.58 μΜ.
For C[C@@H]1CC2=C(CO1)C(=O)[C@@](C)(O)[C@H](O)C2 [Compound 2, felinone A], the “lethal rate against brine shrimp” value [1] was 61.4%.
In the case of C=CC[C@H]1OC(=O)CCNC(=O)[C@H](C)N(C)C(=O)[C@H](C(C)C)N(C)C(=O)[C@H]([C@@H](C)CC)NC(=O)[C@@H]2CCCN2C1=O [Compound 4, destruxin A] (cyclo([dLac(3-vinyl)]PI[NMeV][NMeA][βAla])), the “LD50, lethality against brine shrimp” value [1] is reported as 5.34 μΜ.
CC[C@H](C)[C@@H]1NC(=O)[C@@H]2CCCN2C(=O)[C@@H](C[C@H](O)CCl)OC(=O)CCNC(=O)[C@H](C)N(C)C(=O)[C@H](C(C)C)N(C)C1=O [Compound 6, destruxin E chlorohydrin] (cyclo([X1]PI[NMeV][NMeA][βAla])) was tested, and the “LD50, lethality against brine shrimp” value [1] was 2.16 μΜ.
With O=C(N[C@H](CO)[C@H](O)c1ccc([N+](=O)[O-])cc1)C(Cl)Cl [chloramphenicol] the MIC (P. aeruginosa) was 4 µg/mL (≈ 12.4 µM).
With COc1cc2c(c(OC)c1OC)-c1ccc(OC)c(=O)cc1[C@@H](NC(C)=O)CC2 [colchicine, reference compound] the “LD50, lethality against brine shrimp” value [1] was 88.4 μΜ.
With felinone B [Compound 3] the “lethal rate against brine shrimp” value [1] was 59.6%.
